Laboratory results taken from patent US20120277209A1, “PYRAZINE COMPOUNDS AS PHOSPHODIESTERASE 10 INHIBITORS” (Amgen Inc., priority 2009, published 2012).

biological target: PDE10 (UniProt Q9Y233); experiment: PDE10 enzyme inhibition, IMAP TR-FRET assay (MPDE10A7 Enzyme Activity and Inhibition); format: biochemical; details: IC50 class against PDE10; read-out: IC50
Summary of the method: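 IMAP TR-FRET read-out of PDE10 hydrolysis of fluorescein-cAMP or -cGMP (60 min, room temperature), after a 30 min compound-enzyme preincubation. Enzyme source was PDE10A or tissue homogenate. Averaged IC50s are reported as five range classes.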

| Compound | IC50 [nM] |
| --- | --- |
| COC[C@@H]1CCCN1c1nccnc1Oc1ccc(Nc2nc3ccccc3s2)cc1 [Example 57, (S)—N-(4-(3-(2-(METHOXYMETHYL)PYRROLIDIN-1-YL)PYRAZIN-2-YLOXY)PHENYL)BENZO[D]THIAZOL-2-AMINE] | < 25 |
| COC(=O)N1CCC(c2nccnc2Oc2ccc(C(=O)c3nc4ccccc4[nH]3)cc2)CC1 [Example 227, methyl 4-(3-(4-(1H-benzo[d]imidazole-2-carbonyl)phenoxy)pyrazin-2-yl)piperidine-1-carboxylate] | < 25 |
| 1H-BENZIMIDAZOL-2-YL(4-((3-(CIS-4-HYDROXYCYCLOHEXYL)-2-PYRAZINYL)OXY)PHENYL)METHANONE AND 1H-BENZIMIDAZOL-2-YL(4-((3-(TRANS-4-HYDROXYCYCLOHEXYL)-2-PYRAZINYL)OXY)PHENYL)METHANONE [Example 188] | < 25 |
| Fc1ccc2sc(Nc3ccc(Oc4nccnc4C4CCOCC4)cc3)nc2c1 [Example 218, 5-fluoro-N-(4-(3-(tetrahydro-2H-pyran-4-yl)pyrazin-2-yloxy)phenyl)benzo[d]thiazol-2-amine] | < 25 |
| COCC1CCN(c2nccnc2Oc2ccc(Nc3nc4ccccc4s3)cc2)C1 (racemic) [Example 88, N-(4-(3-(3-(methoxymethyl)-pyrrolidin-1-yl)pyrazin-2-yl-oxy)phenyl)benzo[d]thiazol-2-amine] | < 25 |
| c1ccc2[nH]c(Nc3ccc(Oc4nccnc4C4CCOCC4)cc3)nc2c1 [Example 207, N-(4-(3-(tetrahydro-2H-pyran-4-yl)pyrazin-2-yloxy)phenyl)-1H-benzo[d]imidazol-2-amine] | < 25 |
| OCc1ccc(-c2nccnc2Oc2ccc(Nc3nc4ccccc4s3)cc2)cn1 [Example 146, (5-(3-(4-(benzo[d]thiazol-2-ylamino)phenoxy)pyrazin-2-yl)pyridin-2-yl)methanol] | 25 to 100 |
| Fc1cc(Oc2nccnc2Cl)ccc1Nc1nc2ccccc2s1 [Example 103, N-(4-(3-chloropyrazin-2-yloxy)-2-fluorophenyl)benzo[d]thiazol-2-amine] | 1000 to 5000 |
| O=C(c1ccc(Oc2nccnc2-c2ccc[nH]c2=O)cc1)c1nc2ccccc2[nH]1 [Example 106, 3-(3-(4-(1H-BENZO[D]IMIDAZOLE-2-CARBONYL)PHENOXY)PYRAZIN-2-YL)PYRIDIN-2(1H)-ONE] | < 25 |
| CC(=O)OC(C)C(=O)N1CCC(c2nccnc2Oc2ccc(C(=O)c3nc4ccccc4[nH]3)cc2)CC1 (stereo not shown) [Example 238, 1-(4-(3-(4-(1H-benzo[d]imidazole-2-carbonyl)phenoxy)pyrazin-2-yl)piperidin-1-yl)-1-oxopropan-2-yl acetate] | < 25 |
| O=C1C=C(c2nccnc2Oc2ccc(Nc3nc4ccccc4s3)c(F)c2)CCC1 [Example 136, 3-(3-(4-(benzo[d]thiazol-2-ylamino)-3-fluorophenoxy)pyrazin-2-yl)cyclohex-2-enone] | < 25 |
| O=C(c1ccc(Oc2nccnc2C(=O)NCCc2ccccn2)cc1)c1nc2ccccc2[nH]1 [Example 257, 3-(4-(1H-benzo[d]imidazole-2-carbonyl)phenoxy)-N-(2-(pyridin-2-yl)ethyl)pyrazine-2-carboxamide] | < 25 |
| COC(=O)C1(c2nccnc2Oc2ccc(Nc3nc4ccccc4s3)cc2)CCOCC1 [Example 212, methyl 4-(3-(4-(benzo[d]thiazol-2-ylamino)phenoxy)pyrazin-2-yl)tetrahydro-2H-pyran-4-carboxylate] | < 25 |

same assay, conditions: PDE10 enzyme inhibition; average IC50 data for each compound; read-out: Average IC50

| Compound | IC50 [nM] |
| --- | --- |
| COc1ncccc1-c1nccnc1Oc1ccc([C@H](O)c2nc3ccccc3[nH]2)cc1 (stereo in doubt) | 14.9 |
| O[C@H]1CCC[C@H](c2nccnc2Oc2ccc(Nc3nc4ccccc4s3)cc2)C1 [drawing 913] | 1.34 |
| COC[C@H](C)NC(=O)c1nccnc1Oc1ccc(C(=O)c2nc3ccccc3[nH]2)cc1 [drawing 802] | 45.4 |
| Fc1cc(Oc2nccnc2Cl)ccc1Nc1nc2ccccc2s1 [drawing 836] | 614 |
| O=C(c1ccc(Oc2nccnc2C2=CC[C@@H](O)CC2)cc1)c1nc2ccccc2[nH]1 (racemic) | 1.69 |
| O=C(c1ccc(Oc2nccnc2C2=CCOCC2)cc1)c1nc2ccccc2[nH]1 | 3.36 |
